Measured values published in PubChem BioAssay AID1963862 (Molecular Pharmacology Branch, DTP, NCI, 2024).

Test system: KRAS patient-derived spheroids with HUVEC/MSC, viability
Experiment: Anticancer human tumor 941728-121-R-J1-PDC patient-derived lung adenocarcinoma cell line growth inhibition [KRAS2]
Conditions: for IC50: curve of first compound; for viability, T/C: stronger effect = lower value
Outline: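 Combination screen of spheroid viability in tumor-cell co-cultures with endothelial (HUVEC) and mesenchymal stem cell stroma. Each agent was tested in half-log dilutions, topping at clinical Cmax or at 10 microM without a known Cmax.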
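Also: spheroids exposed to agents for seven days before readout.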

SMILES: Cn1ncnc1[C@H]1c2n[nH]c(=O)c3cc(F)cc(c23)N[C@@H]1c1ccc(F)cc1 + C=CC(=O)N1CCN(c2nc(OCC3CCCN3C)nc3c2CCN(c2cccc4cccc(C)c24)C3)CC1CC#N
- IC50 (second compound 0.0316 µM): < 0.316 nM
- IC50 (second compound 0.1 µM): < 0.316 nM
- IC50 (second compound 0.316 µM): < 0.316 nM
- IC50 (second compound 1 µM): < 0.316 nM
- IC50 (second compound 3.16 µM): < 0.316 nM
- viability, T/C (second compound 0.0316 µM, first compound 0.000316 µM): 24.6%
- viability, T/C (second compound 0.0316 µM, first compound 0.001 µM): 23.2%
- viability, T/C (second compound 0.0316 µM, first compound 0.00316 µM): 19.4%
- viability, T/C (second compound 0.0316 µM, first compound 0.01 µM): 19.7%
- viability, T/C (second compound 0.0316 µM, first compound 0.0316 µM): 17.4%
- viability, T/C (second compound 0.0316 µM, first compound 0.1 µM): 17.5%
- viability, T/C (second compound 0.1 µM, first compound 0.000316 µM): 18.3%
- viability, T/C (second compound 0.1 µM, first compound 0.001 µM): 18.2%
- viability, T/C (second compound 0.1 µM, first compound 0.00316 µM): 19.9%
- viability, T/C (second compound 0.1 µM, first compound 0.01 µM): 17.6%
- viability, T/C (second compound 0.1 µM, first compound 0.0316 µM): 17.3%
- viability, T/C (second compound 0.1 µM, first compound 0.1 µM): 15.8%
- viability, T/C (second compound 0.316 µM, first compound 0.000316 µM): 18.2%
- viability, T/C (second compound 0.316 µM, first compound 0.001 µM): 18.9%
- viability, T/C (second compound 0.316 µM, first compound 0.00316 µM): 17.9%
- viability, T/C (second compound 0.316 µM, first compound 0.01 µM): 16.2%
- viability, T/C (second compound 0.316 µM, first compound 0.0316 µM): 16%
- viability, T/C (second compound 0.316 µM, first compound 0.1 µM): 17.1%
- viability, T/C (second compound 1 µM, first compound 0.000316 µM): 17.6%
- viability, T/C (second compound 1 µM, first compound 0.001 µM): 17.5%
- viability, T/C (second compound 1 µM, first compound 0.00316 µM): 13.5%
- viability, T/C (second compound 1 µM, first compound 0.01 µM): 18.3%
- viability, T/C (second compound 1 µM, first compound 0.0316 µM): 15.5%
- viability, T/C (second compound 1 µM, first compound 0.1 µM): 14.2%
- viability, T/C (second compound 3.16 µM, first compound 0.000316 µM): 0.11%
- viability, T/C (second compound 3.16 µM, first compound 0.001 µM): 0.2%
- viability, T/C (second compound 3.16 µM, first compound 0.00316 µM): 0.09%
- viability, T/C (second compound 3.16 µM, first compound 0.01 µM): 0.11%
- viability, T/C (second compound 3.16 µM, first compound 0.0316 µM): 0.16%
- viability, T/C (second compound 3.16 µM, first compound 0.1 µM): 0.23%
